Our source for the IC50 values is patent US20250034110A1, “LPAR1 ANTAGONISTS AND USES THEREOF” (Pipeline Therapeutics, Inc., priority 2021, published 2025).

The experiment concerns the target human LPAR1 (Homo sapiens, UniProt Q92633). The experiment is described as follows: In vitro functional assay of lysophosphatidic acid receptor 1 activity (calcium flux). The experiment is classed as cell-based. Background: Calcium flux is commonly read through the fluorescence of an indicator in the cells.
Setting [1] is: B103 cells stably expressing human LPAR1, calcium flux (Fluo-4 NW) after lysophosphatidic acid (18:1) at EC80, 100 pM to 10 μM, read-out: LPAR1 IC50.

Read-outs that look alike come from different tables or passages of the source. Some results are limits rather than exact numbers.

Sequence of human LPAR1 (Q92633 whole entry): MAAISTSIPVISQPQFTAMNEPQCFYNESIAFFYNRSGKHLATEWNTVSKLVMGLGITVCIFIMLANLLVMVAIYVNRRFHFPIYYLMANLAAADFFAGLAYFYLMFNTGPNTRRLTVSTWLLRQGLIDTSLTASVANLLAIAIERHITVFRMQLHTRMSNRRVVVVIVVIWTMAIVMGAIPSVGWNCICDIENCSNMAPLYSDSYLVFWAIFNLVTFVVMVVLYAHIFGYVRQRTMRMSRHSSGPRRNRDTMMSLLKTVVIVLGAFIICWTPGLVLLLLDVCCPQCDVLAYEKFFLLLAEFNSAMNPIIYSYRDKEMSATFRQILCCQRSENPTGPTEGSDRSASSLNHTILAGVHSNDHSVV

By IC50 is commonly meant the concentration needed to halve the response being measured. Consider `Cc1ccc(NC(=O)N(c2ccccc2C(C)C)[C@H]2CC[C@H](O)CC2)c(OC(F)F)n1` [Example 239, 3-(2-(difluoromethoxy)-6-methylpyridin-3-yl)-1-((1r,4r)-4-hydroxycyclohexyl)-1-(2-isopropylphenyl)urea], for which the IC50 under setting [1] was in the range of 100 to 1000 nM.
Still for that read-out and setting: under `Cc1nc(OC(F)F)c(NC(=O)N(c2ccccc2C(C)C)[C@H]2CC[C@H](C(=O)O)CC2)cc1F` [Example 221, (1r,4r)-4-(3-(2-(difluoromethoxy)-5-fluoro-6-methylpyridin-3-yl)-1-(2-isopropylphenyl)ureido)cyclohexane-1-carboxylic acid] stands less than 10 nM.
Same read-out and setting: under `Cc1ccc(NC(=O)N(c2ccccc2C(C)C)[C@H]2C[C@H](Cc3nnn[nH]3)C2)c(OC(F)F)n1` [Example 191, 1-((1r,3r)-3-((1H-tetrazol-5-yl)methyl)cyclobutyl)-3-(2-(difluoromethoxy)-6-methylpyridin-3-yl)-1-(2-isopropylphenyl)urea] stands 10 to 100 nM; under `COc1ccc(NC(=O)N(c2ccccc2C(C)C)[C@H]2CCN(C3COC3)C2)c(OC(F)F)n1` [Example 38, (S)-3-(2-(difluoromethoxy)-6-methoxypyridin-3-yl)-1-(2-isopropylphenyl)-1-(1-(oxetan-3-yl)pyrrolidin-3-yl)urea], 100 to 1000 nM.
The same measure, in the same setting: as for `Cc1ccc(NC(=O)N(c2ccccc2C(C)C)[C@H]2CC[C@@H](S(C)(=O)=O)CC2)c(OC(F)F)n1` [Example 255, 3-(2-(difluoromethoxy)-6-methylpyridin-3-yl)-1-(2-isopropylphenyl)-1-((1s,4s)-4-(methylsulfonyl)cyclohexyl)urea], the figure is 10 to 100 nM; as for `COc1ccc(NC(=O)N(c2ccccc2C(C)C)[C@H]2C[C@H](C(=O)O)C2)c(OC(F)F)n1` [Example 151], 10 to 100 nM.
Take `COC(=O)c1cc(Br)cnc1NC(=O)N(c1ccccc1C(C)C)C1CCN(C(C)=O)CC1` [Example 226]: under “LPAR1 IC50”, the IC50 was 100 to 1000 nM.
Take `COc1ccc(NC(=O)N(c2ccccc2C(C)C)C2CC3CC2CN3C(C)=O)c(OC(F)F)n1` (stereo not drawn) [Example 57, 1-(2-acetyl-2-azabicyclo[2.2.1]heptan-5-yl)-3-(2-(difluoromethoxy)-6-methoxypyridin-3-yl)-1-(2-isopropylphenyl)urea]: the IC50 (LPAR1 IC50) was in the range of 100 to 1000 nM.
`Cc1ccc(NC(=O)N(c2ccccc2C(C)C)C2CCC3(CC2)COC3)c(OC(F)F)n1` [Example 236, 3-(2-(difluoromethoxy)-6-methylpyridin-3-yl)-1-(2-isopropylphenyl)-1-(2-oxaspiro[3.5]nonan-7-yl)urea]: the IC50 under setting [1] is 100 to 1000 nM.
Regarding `CCOc1ccc(NC(=O)N(c2ccccc2C(C)C)C2CCN(C(C)=O)CC2)c(OC(F)F)n1` [Example 107], the IC50 (LPAR1 IC50) is 10 to 100 nM.
Take `C=C(C)c1ccccc1N(C(=O)Nc1ccc(C)nc1OC(F)F)C1CCN(C(C)=O)CC1` [Example 29, 1-(1-acetylpiperidin-4-yl)-3-(2-(difluoromethoxy)-6-methylpyridin-3-yl)-1-(2-(prop-1-en-2-yl)phenyl)urea]: the IC50 (LPAR1 IC50) lay in the range of 10 to 100 nM.
With `Cc1ccc(NC(=O)N(c2ccccc2C(C)C)C2CC(=O)N(C)C2)c(OC(F)F)n1` (stereo not drawn) [Example 7, 3-(2-(difluoromethoxy)-6-methylpyridin-3-yl)-1-(2-isopropylphenyl)-1-(1-methyl-5-oxopyrrolidin-3-yl)urea], the IC50 under setting [1] lay within 100 to 1000 nM.
Turning to `CC(=O)N1CCC(N(C(=O)Nc2ccc(C)nc2OC(F)F)c2cnccc2C(C)C)CC1` [Example 36, 1-(1-acetylpiperidin-4-yl)-3-(2-(difluoromethoxy)-6-methylpyridin-3-yl)-1-(4-isopropylpyridin-3-yl)urea], the IC50 (LPAR1 IC50) lay in the range of 100 to 1000 nM.
Regarding `COc1ccc(NC(=O)N(c2ccccc2C(C)C)[C@H]2C[C@@H]3CC[C@H]2N3C(C)=O)c(OC(F)F)n1` (racemic) [Example 60, rac-1-((1R,2S,4S)-7-acetyl-7-azabicyclo[2.2.1]heptan-2-yl)-3-(2-(difluoromethoxy)-6-methoxypyridin-3-yl)-1-(2-isopropylphenyl)urea], under setting [1], the IC50 is more than 1000 nM.
The same measure, in the same setting: under `CC(C)(C)c1ccccc1N(C(=O)Nc1ncc(Br)cc1OC(F)F)C1CCC(C(=O)O)CC1` (stereo not drawn) [Example 273] stands 10 to 100 nM; under `Cc1ccc(NC(=O)N(c2ccccc2C(C)C)C2CCC(=O)CC2)c(OC(F)F)n1` [Example 243], 100 to 1000 nM; under `COc1ccc(NC(=O)N(c2ccccc2C(C)C)[C@H]2CC[C@H](OC)CC2)c(OC(F)F)n1` [Example 40, 3-(2-(difluoromethoxy)-6-methoxypyridin-3-yl)-1-(2-isopropylphenyl)-1-((1r,4r)-4-methoxycyclohexyl)urea], 10 to 100 nM.
The same measure, in the same setting: as for `CC(C)c1ccccc1N(C(=O)Nc1cc(F)c(Cl)cc1OCC(F)F)[C@H]1CC[C@H](C(=O)O)CC1` [Example 334, (1r,4r)-4-(3-(4-chloro-2-(2,2-difluoroethoxy)-5-fluorophenyl)-1-(2-isopropylphenyl)ureido)cyclohexane-1-carboxylic acid], the figure is less than 10 nM; as for `Cc1ccc(NC(=O)N(c2ccccc2C(C)C)C2CCC(F)(F)CC2)c(OC(F)F)n1` [Example 237, 1-(4,4-difluorocyclohexyl)-3-(2-(difluoromethoxy)-6-methylpyridin-3-yl)-1-(2-isopropylphenyl)urea], 100 to 1000 nM.
With `CC(=O)N1CCC(N(C(=O)Nc2ncc(Br)nc2OC(F)F)c2ccccc2C(C)C)CC1` [Example 184, 1-(1-acetylpiperidin-4-yl)-3-(5-bromo-3-(difluoromethoxy)pyrazin-2-yl)-1-(2-isopropylphenyl)urea], the IC50 (LPAR1 IC50) lay in the range of 100 to 1000 nM.
Regarding `COc1ccc(NC(=O)N(c2ccccc2C(C)C)[C@@H]2CCC[C@H](C(=O)O)C2)c(OC(F)F)n1` [Example 286], the IC50 under setting [1] lay within 10 to 100 nM.
For `COc1ccc(NC(=O)N(c2ccccc2C(C)C)C2CCN(C(=O)CC#N)CC2)c(OC(F)F)n1` [Example 85, 1-(1-(2-cyanoacetyl)piperidin-4-yl)-3-(2-(difluoromethoxy)-6-methoxypyridin-3-yl)-1-(2-isopropylphenyl)urea], the IC50 (LPAR1 IC50) is 10 to 100 nM.
Regarding `COc1ccc(NC(=O)N(c2ccccc2C(C)C)C2CCN(C)C(=O)C2)c(OC(F)F)n1` (stereo not drawn) [Example 44, 3-(2-(difluoromethoxy)-6-methoxypyridin-3-yl)-1-(2-isopropylphenyl)-1-(1-methyl-2-oxopiperidin-4-yl)urea], the IC50 under setting [1] was 10 to 100 nM.
For the compound `COC(=O)N1CCC(N(C(=O)Nc2ccc(OC)nc2OC(F)F)c2ccccc2C(C)C)CC1` [Example 63, methyl 4-(3-(2-(difluoromethoxy)-6-methoxypyridin-3-yl)-1-(2-isopropylphenyl)ureido)piperidine-1-carboxylate], the IC50 (LPAR1 IC50) lay within 10 to 100 nM.
Consider `COC(=O)CC1CC(N(C(=O)Nc2ccc(C)nc2OC(F)F)c2ccccc2C(C)C)C1` (stereo not drawn) [Example 159, methyl 2-(3-(3-(2-(difluoromethoxy)-6-methylpyridin-3-yl)-1-(2-isopropylphenyl)ureido)cyclobutyl)acetate], for which the 50% inhibitory concentration (IC50) under setting [1] is 100 to 1000 nM.
`COc1ccc(NC(=O)N(c2ccccc2C(C)C)[C@@H]2C[C@H]3CC[C@@H](C2)N3C(C)=O)c(OC(F)F)n1` [Example 55, 1-((1R,3r,5S)-8-acetyl-8-azabicyclo[3.2.1]octan-3-yl)-3-(2-(difluoromethoxy)-6-methoxypyridin-3-yl)-1-(2-isopropylphenyl)urea]: the 50% inhibitory concentration (IC50) (LPAR1 IC50) was 100 to 1000 nM.
The same measure, in the same setting: under `COc1nc(OC(F)F)c(NC(=O)N(c2ccccc2C(C)C)C2CCN(C(C)=O)CC2)cc1F` [Example 225, 1-(1-acetylpiperidin-4-yl)-3-(2-(difluoromethoxy)-5-fluoro-6-methoxypyridin-3-yl)-l-(2-isopropylphenyl)urea] stands 10 to 100 nM.
Same read-out and setting: under `CC(=O)N1CCC(N(C(=O)Nc2cnc(C)cn2)c2ccccc2C(C)C)CC1` [Example 131] stands 100 to 1000 nM; under `COc1ccc(NC(=O)N(c2ccccc2C(C)C)[C@@H]2C[C@H]3C[C@@H]2CN3C(C)=O)c(OC(F)F)n1` [Example 58, 1-((1R,4R,5R)-2-acetyl-2-azabicyclo[2.2.1]heptan-5-yl)-3-(2-(difluoromethoxy)-6-methoxypyridin-3-yl)-1-(2-isopropylphenyl)urea], more than 1000 nM; under `CC(=O)N1CCC(N(C(=O)Nc2ncc(F)cc2Br)c2ccccc2C(C)C)CC1` [Example 137], more than 1000 nM.
For the compound `Cc1cc(OC(F)F)c(NC(=O)N(c2ccccc2C(C)C)[C@H]2CC[C@H](C(=O)O)CC2)cn1` [Example 157, trans-4-(3-(4-(difluoromethoxy)-6-methylpyridin-3-yl)-1-(2-isopropylphenyl)ureido)cyclohexane-1-carboxylic acid], the IC50 under setting [1] was 10 to 100 nM.
For `[2H]C([2H])([2H])Oc1cc(C(F)F)ncc1NC(=O)N(c1ccccc1C(C)C)[C@H]1CC[C@H](C(=O)O)CC1` [Example 296, (1r,4r)-4-(3-(6-(difluoromethyl)-4-(methoxy-d3)pyridin-3-yl)-1-(2-isopropylphenyl)ureido)cyclohexane-1-carboxylic acid], the IC50 under setting [1] fell in the range of 100 to 1000 nM.
On the same count and under the same terms, under `COC(=O)N1CC(N(C(=O)Nc2ccc(C)nc2OC(F)F)c2ccccc2C(C)C)C1` [Example 77, methyl 3-(3-(2-(difluoromethoxy)-6-methylpyridin-3-yl)-l-(2-isopropylphenyl)ureido)azetidine-1-carboxylate] stands 10 to 100 nM; under `CC(=O)N(C(C)=O)[C@H]1CC[C@@H](N(C(=O)Nc2ccc(C)nc2OC(F)F)c2ccccc2C(C)C)CC1` [Example 264, N-acetyl-N-((1s,4s)-4-(3-(2-(difluoromethoxy)-6-methylpyridin-3-yl)-1-(2-isopropylphenyl)ureido)-cyclohexyl)acetamide], 100 to 1000 nM.
On the same count and under the same terms, under `CC(C)c1ccccc1N(C(=O)Nc1ncc(Cl)cc1OC(F)F)[C@H]1CC[C@H](C(=O)O)CC1` [Example 336, (1r,4r)-4-(3-(5-chloro-3-(difluoromethoxy)pyridin-2-yl)-1-(2-isopropylphenyl)ureido)cyclohexane-1-carboxylic acid] stands 10 to 100 nM; under `Cc1cc(OC(F)F)c(NC(=O)N(c2ccccc2C(C)C)[C@H]2C[C@@H](CC(=O)O)C2)cn1` [Example 305], 10 to 100 nM.
